Test results reported in patent US20230131899A1, “INHIBITORS OF MICROBIALLY INDUCED AMYLOID” (Axial Therapeutics, Inc., priority 2020, published 2023).
Read-outs that look alike come from different tables or passages of the source.

Test system: CsgA gene expression (csgBAC promoter-GFP reporter) in E. coli UTI89
Assay: In vitro live cell fluorescent reporter assay of CsgA transcription (Reporter Assay)
Type: cell-based
In short: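 Chromosomal single-copy csgBAC promoter–GFP reporter in E. coli UTI89, started at OD600 0.003 in YESCA broth with compound (0.14–100 μM, 1% DMSO), 20 h at 27 °C. GFP (ex 485/em 525 nm) background-subtracted and normalized to vehicle; IC50 and X[50] from curve fits. OD600 tracked growth effects.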

[1] = Escherichia coli, read-out: Reporter Assay Abs IC50 (μM), median Abs IC50 in the CsgA reporter assay, N/A = maximum expression reduction is <50% of control
[2] = Escherichia coli, read-out: Reporter Assay Abs IC50, activity range, class symbol

| SMILES | IC50 [1] [µM] | IC50 [2] [µM] | IC50 (Escherichia coli, read-out: Reporter Assay Abs IC50 (activity range), median Abs IC50 in the CsgA reporter assay, class symbol) [µM] | IC50 (read-out: Reporter Assay Abs IC50 (activity range), median Abs IC50 in the CsgA reporter assay, class symbol) [µM] | IC50 (read-out: Reporter Assay Abs IC50, median Abs IC50 in the CsgA reporter assay, N/A = maximum expression reduction is <50% of control) [µM] |
| --- | --- | --- | --- | --- | --- |
| O=C(O)C1CN(CCCCCCCN2CC(C(=O)O)n3c2c(-c2cccc(C(F)(F)F)c2)c(Cc2cccc4ccccc24)c(Cl)c3=O)c2c(-c3cccc(C(F)(F)F)c3)c(Cc3cccc4ccccc34)c(Cl)c(=O)n21 (centres unmarked) [Compound 188, 1,1′-(heptane-1,7-diyl)bis(6-chloro-7-(naphthalen-1-ylmethyl)-5-oxo-8-(3-(trifluoromethyl)phenyl)-1,2,3,5-tetrahydroimidazo[1,2-a]pyridine-3-carboxylic acid)] | 0.8 | < 1.3 |  |  |  |
| CN1CC(C(=O)O)n2c(c(-c3cccc(C(F)(F)F)c3)c(Cc3cccc4ccccc34)c(NC3CCCC3)c2=O)S1(=O)=O (centres unmarked) [Compound 070, 7-(cyclopentylamino)-2-methyl-8-(naphthalen-1-ylmethyl)-6-oxo-9-(3-(trifluoromethyl)phenyl)-3,4-dihydro-2H,6H-pyrido[1,2-e][1,2,5]thiadiazine-4-carboxylic acid 1,1-dioxide] | 2.3 |  | 1.3 to 4.5 |  |  |
| O=C(O)C1CN(CCc2ccccc2)c2c(-c3cccc(C(F)(F)F)c3)c(Cc3cccc4ccccc34)c(Cl)c(=O)n21 (centres unmarked) [Compound 178, 6-chloro-7-(naphthalen-1-ylmethyl)-5-oxo-1-phenethyl-8-(3-(trifluoromethyl)phenyl)-1,2,3,5-tetrahydroimidazo[1,2-a]pyridine-3-carboxylic acid] | 0.8 | < 1.3 |  |  |  |
| O=C(O)[C@@H]1CN(Cc2ccccc2)c2c(-c3cccc(C(F)(F)F)c3)c(Cc3cccc4ccccc34)c(Cl)c(=O)n21 (single isomer, unassigned) [Compound 004a] | 0.2 | < 1.3 |  |  |  |
| Nc1c(Cc2cccc3ccccc23)c(-c2cccc(C(F)(F)F)c2)c2n(c1=O)C(C(=O)O)CS2 (single isomer, unassigned) [Compound 020b, 6-amino-7-(naphthalen-1-ylmethyl)-5-oxo-8-(3-(trifluoromethyl)phenyl)-2,3-dihydro-5H-thiazolo[3,2-a]pyridine-3-carboxylic acid] |  |  |  | 4.6 to 10 | 5.7 |
| O=C(O)C1CN(Cc2ccccc2)c2c(-c3cccc(C(F)(F)F)c3)c(Cc3cccc4ccccc34)c(Cl)c(=O)n21 (centres unmarked) [Compound 004, 1-benzyl-6-chloro-7-(naphthalen-1-ylmethyl)-5-oxo-8-(3-(trifluoromethyl)phenyl)-1,2,3,5-tetrahydroimidazo[1,2-a]pyridine-3-carboxylic acid] | 0.7 | < 1.3 |  |  |  |
| CC(C)CN1CC(C(=O)O)n2c1c(-c1cccc(C(F)(F)F)c1)c(Cc1cccc3ccccc13)c(Cl)c2=O (centres unmarked) [Compound 164, 6-chloro-1-isobutyl-7-(naphthalen-1-ylmethyl)-5-oxo-8-(3-(trifluoromethyl)phenyl)-1,2,3,5-tetrahydroimidazo[1,2-a]pyridine-3-carboxylic acid] | 0.9 | < 1.3 |  |  |  |
| CCc1c(Cc2cccc3ccccc23)c(-c2cccc(C(F)(F)F)c2)c2n(c1=O)C(C(=O)O)CN2Cc1ccc(OC)cc1 (centres unmarked) [Compound 161, 6-ethyl-1-(4-methoxybenzyl)-7-(naphthalen-1-ylmethyl)-5-oxo-8-(3-(trifluoromethyl)phenyl)-1,2,3,5-tetrahydroimidazo[1,2-a]pyridine-3-carboxylic acid] | 2.1 | 1.3 to 4.5 |  |  |  |
| O=C(O)C1CN(CC2CCCCC2)c2c(-c3cccc(C(F)(F)F)c3)c(Cc3cccc4ccccc34)c(Cl)c(=O)n21 (centres unmarked) [Compound 180, 6-chloro-1-(cyclohexylmethyl)-7-(naphthalen-1-ylmethyl)-5-oxo-8-(3-(trifluoromethyl)phenyl)-1,2,3,5-tetrahydroimidazo[1,2-a]pyridine-3-carboxylic acid] | 0.5 | < 1.3 |  |  |  |
| CCCN1CC(C(=O)O)n2c(c(-c3cccc(C(F)(F)F)c3)c(Cc3cccc4ccccc34)c(O)c2=O)S1(=O)=O (centres unmarked) [Compound 141, 7-hydroxy-8-(naphthalen-1-ylmethyl)-6-oxo-2-propyl-9-(3-(trifluoromethyl)phenyl)-3,4-dihydro-2H,6H-pyrido[1,2-e][1,2,5]thiadiazine-4-carboxylic acid 1,1-dioxide] | 2.7 | 1.3 to 4.5 |  |  |  |
